Assay results reported in patent US8445492B2, “Method for inhibiting growth of cancer cells and cell telomere and diseases of cell proliferation by using heteroannelated anthraquinone derivative compounds” (National Defense Medical Center, priority 2008, dated 2013).

Legend:
Format in all cases: cell-based
Conditions in all cases: for GI50: read-out: GI50
HT29 = experiment: NCI DTP in-vitro dose response, Colon Cancer
SW-620 = experiment: NCI DTP in-vitro dose response, Colon Cancer
KM12 = experiment: NCI DTP in-vitro dose response, Colon Cancer
COLO 205 = experiment: NCI DTP in-vitro dose response, Colon Cancer
HCT-116 = experiment: NCI DTP in-vitro dose response, Colon Cancer
HCC-2998 = experiment: NCI DTP in-vitro dose response, Colon Cancer
HCT-15 = experiment: NCI DTP in-vitro dose response, Colon Cancer
SNB-75 = experiment: NCI DTP in-vitro dose response, CNS Cancer
SF-539 = experiment: NCI DTP in-vitro dose response, CNS Cancer
SNB-19 = experiment: NCI DTP in-vitro dose response, CNS Cancer
U251 = experiment: NCI DTP in-vitro dose response, CNS Cancer
SF-295 = experiment: NCI DTP in-vitro dose response, CNS Cancer
SF-268 = experiment: NCI DTP in-vitro dose response, CNS Cancer

CCc1nc2ccc3c(c2[nH]1)C(=O)c1ccccc1C3=O [TABLE 4-3]
CC50 (HT29): > 100 µM
TGI (HT29): >1.00E−4
Percent Growth (HT29; Log10 Concentration −4.0): 11%
Percent Growth (HT29; Log10 Concentration −5.0): 48%
Percent Growth (HT29; Log10 Concentration −6.0): 88%
Percent Growth (HT29; Log10 Concentration −7.0): 100%
Percent Growth (HT29; Log10 Concentration −8.0): 94%
GI50 (HT29): 8.84 µM
CC50 (SW-620): > 100 µM
TGI (SW-620): >1.00E−4
Percent Growth (SW-620; Log10 Concentration −4.0): 6%
Percent Growth (SW-620; Log10 Concentration −5.0): 39%
Percent Growth (SW-620; Log10 Concentration −6.0): 89%
Percent Growth (SW-620; Log10 Concentration −7.0): 96%
Percent Growth (SW-620; Log10 Concentration −8.0): 99%
GI50 (SW-620): 5.97 µM
CC50 (KM12): > 100 µM
TGI (KM12): >1.00E−4
Percent Growth (KM12; Log10 Concentration −4.0): 13%
Percent Growth (KM12; Log10 Concentration −5.0): 43%
Percent Growth (KM12; Log10 Concentration −6.0): 89%
Percent Growth (KM12; Log10 Concentration −7.0): 94%
Percent Growth (KM12; Log10 Concentration −8.0): 98%
GI50 (KM12): 7.15 µM
CC50 (COLO 205): > 100 µM
TGI (COLO 205): >1.00E−4
Percent Growth (COLO 205; Log10 Concentration −4.0): 9%
Percent Growth (COLO 205; Log10 Concentration −5.0): 41%
Percent Growth (COLO 205; Log10 Concentration −6.0): 85%
Percent Growth (COLO 205; Log10 Concentration −7.0): 93%
Percent Growth (COLO 205; Log10 Concentration −8.0): 93%
GI50 (COLO 205): 6.36 µM
CC50 (HCT-116): > 100 µM
TGI (HCT-116): >1.00E−4
Percent Growth (HCT-116; Log10 Concentration −4.0): 11%
Percent Growth (HCT-116; Log10 Concentration −5.0): 42%
Percent Growth (HCT-116; Log10 Concentration −6.0): 78%
Percent Growth (HCT-116; Log10 Concentration −7.0): 95%
Percent Growth (HCT-116; Log10 Concentration −8.0): 92%
GI50 (HCT-116): 6.1 µM
CC50 (HCC-2998): > 100 µM
TGI (HCC-2998): >1.00E−4
Percent Growth (HCC-2998; Log10 Concentration −4.0): 22%
Percent Growth (HCC-2998; Log10 Concentration −5.0): 59%
Percent Growth (HCC-2998; Log10 Concentration −6.0): 90%
Percent Growth (HCC-2998; Log10 Concentration −7.0): 94%
Percent Growth (HCC-2998; Log10 Concentration −8.0): 88%
GI50 (HCC-2998): 17.4 µM
CC50 (HCT-15): > 100 µM
TGI (HCT-15): >1.00E−4
Percent Growth (HCT-15; Log10 Concentration −4.0): 8%
Percent Growth (HCT-15; Log10 Concentration −5.0): 27%
Percent Growth (HCT-15; Log10 Concentration −6.0): 69%
Percent Growth (HCT-15; Log10 Concentration −7.0): 93%
Percent Growth (HCT-15; Log10 Concentration −8.0): 90%
GI50 (HCT-15): 2.82 µM

CCc1nc2ccc3c(c2[nH]1)C(=O)c1ccccc1C3=O [TABLE 4-4]
CC50 (SNB-75): > 100 µM
TGI (SNB-75): >1.00E−4
Percent Growth (SNB-75; Log10 Concentration −4.0): 17%
Percent Growth (SNB-75; Log10 Concentration −5.0): 41%
Percent Growth (SNB-75; Log10 Concentration −6.0): 49%
Percent Growth (SNB-75; Log10 Concentration −7.0): 66%
Percent Growth (SNB-75; Log10 Concentration −8.0): 66%
GI50 (SNB-75): 0.872 µM
CC50 (SF-539): > 100 µM
TGI (SF-539): >1.00E−4
Percent Growth (SF-539; Log10 Concentration −4.0): 13%
Percent Growth (SF-539; Log10 Concentration −5.0): 46%
Percent Growth (SF-539; Log10 Concentration −6.0): 80%
Percent Growth (SF-539; Log10 Concentration −7.0): 83%
Percent Growth (SF-539; Log10 Concentration −8.0): 81%
GI50 (SF-539): 7.46 µM
CC50 (SNB-19): > 100 µM
TGI (SNB-19): >1.00E−4
Percent Growth (SNB-19; Log10 Concentration −4.0): 39%
Percent Growth (SNB-19; Log10 Concentration −5.0): 61%
Percent Growth (SNB-19; Log10 Concentration −6.0): 92%
Percent Growth (SNB-19; Log10 Concentration −7.0): 94%
Percent Growth (SNB-19; Log10 Concentration −8.0): 84%
GI50 (SNB-19): 30.9 µM
CC50 (U251): > 100 µM
TGI (U251): >1.00E−4
Percent Growth (U251; Log10 Concentration −4.0): 27%
Percent Growth (U251; Log10 Concentration −5.0): 49%
Percent Growth (U251; Log10 Concentration −6.0): 84%
Percent Growth (U251; Log10 Concentration −7.0): 96%
Percent Growth (U251; Log10 Concentration −8.0): 94%
GI50 (U251): 9.58 µM
CC50 (SF-295): > 100 µM
TGI (SF-295): >1.00E−4
Percent Growth (SF-295; Log10 Concentration −4.0): 9%
Percent Growth (SF-295; Log10 Concentration −5.0): 35%
Percent Growth (SF-295; Log10 Concentration −6.0): 69%
Percent Growth (SF-295; Log10 Concentration −7.0): 90%
Percent Growth (SF-295; Log10 Concentration −8.0): 88%
GI50 (SF-295): 3.65 µM
CC50 (SF-268): > 100 µM
TGI (SF-268): >1.00E−4
Percent Growth (SF-268; Log10 Concentration −4.0): 28%
Percent Growth (SF-268; Log10 Concentration −5.0): 57%
Percent Growth (SF-268; Log10 Concentration −6.0): 88%
Percent Growth (SF-268; Log10 Concentration −7.0): 96%
Percent Growth (SF-268; Log10 Concentration −8.0): 87%
GI50 (SF-268): 17.7 µM

O=C1c2ccccc2C(=O)c2c1ccc1nccnc21 [TABLE 5-3]
CC50 (HT29): > 100 µM
TGI (HT29): >1.00E−4
Percent Growth (HT29; Log10 Concentration −4.0): 1%
Percent Growth (HT29; Log10 Concentration −5.0): 46%
Percent Growth (HT29; Log10 Concentration −6.0): 74%
Percent Growth (HT29; Log10 Concentration −7.0): 95%
Percent Growth (HT29; Log10 Concentration −8.0): 99%
GI50 (HT29): 7.01 µM
CC50 (SW-620): > 100 µM
TGI (SW-620): 3.08E−5
Percent Growth (SW-620; Log10 Concentration −4.0): −26%
Percent Growth (SW-620; Log10 Concentration −5.0): 25%
Percent Growth (SW-620; Log10 Concentration −6.0): 58%
Percent Growth (SW-620; Log10 Concentration −7.0): 87%
Percent Growth (SW-620; Log10 Concentration −8.0): 94%
GI50 (SW-620): 1.71 µM
CC50 (KM12): > 100 µM
TGI (KM12): 4.95E−5
Percent Growth (KM12; Log10 Concentration −4.0): −18%
Percent Growth (KM12; Log10 Concentration −5.0): 40%
Percent Growth (KM12; Log10 Concentration −6.0): 76%
Percent Growth (KM12; Log10 Concentration −7.0): 90%
Percent Growth (KM12; Log10 Concentration −8.0): 89%
GI50 (KM12): 5.26 µM
CC50 (COLO 205): > 100 µM
TGI (COLO 205): 2.84E−5
Percent Growth (COLO 205; Log10 Concentration −4.0): −35%
Percent Growth (COLO 205; Log10 Concentration −5.0): 29%
Percent Growth (COLO 205; Log10 Concentration −6.0): 74%
Percent Growth (COLO 205; Log10 Concentration −7.0): 86%
Percent Growth (COLO 205; Log10 Concentration −8.0): 92%
GI50 (COLO 205): 3.4 µM
CC50 (HCT-116): > 100 µM
TGI (HCT-116): >1.00E−4
Percent Growth (HCT-116; Log10 Concentration −4.0): 3%
Percent Growth (HCT-116; Log10 Concentration −5.0): 55%
Percent Growth (HCT-116; Log10 Concentration −6.0): 91%
Percent Growth (HCT-116; Log10 Concentration −7.0): 99%
Percent Growth (HCT-116; Log10 Concentration −8.0): 96%
GI50 (HCT-116): 12.3 µM
CC50 (HCC-2998): > 100 µM
TGI (HCC-2998): 8.35E−5
Percent Growth (HCC-2998; Log10 Concentration −4.0): −3%
Percent Growth (HCC-2998; Log10 Concentration −5.0): 40%
Percent Growth (HCC-2998; Log10 Concentration −6.0): 52%
Percent Growth (HCC-2998; Log10 Concentration −7.0): 94%
Percent Growth (HCC-2998; Log10 Concentration −8.0): 97%
GI50 (HCC-2998): 1.4 µM
CC50 (HCT-15): > 100 µM
TGI (HCT-15): 8.43E−5
Percent Growth (HCT-15; Log10 Concentration −4.0): −3%
Percent Growth (HCT-15; Log10 Concentration −5.0): 37%
Percent Growth (HCT-15; Log10 Concentration −6.0): 77%
Percent Growth (HCT-15; Log10 Concentration −7.0): 84%
Percent Growth (HCT-15; Log10 Concentration −8.0): 88%
GI50 (HCT-15): 4.63 µM

O=C1c2ccccc2C(=O)c2c1ccc1nccnc21 [TABLE 5-4]
CC50 (SNB-75): > 100 µM
TGI (SNB-75): >1.00E−4
Percent Growth (SNB-75; Log10 Concentration −4.0): 11%
Percent Growth (SNB-75; Log10 Concentration −5.0): 53%
Percent Growth (SNB-75; Log10 Concentration −6.0): 76%
Percent Growth (SNB-75; Log10 Concentration −7.0): 87%
Percent Growth (SNB-75; Log10 Concentration −8.0): 83%
GI50 (SNB-75): 11.9 µM
CC50 (SF-539): > 100 µM
TGI (SF-539): 5.37E−5
Percent Growth (SF-539; Log10 Concentration −4.0): −9%
Percent Growth (SF-539; Log10 Concentration −5.0): 23%
Percent Growth (SF-539; Log10 Concentration −6.0): 64%
Percent Growth (SF-539; Log10 Concentration −7.0): 88%
Percent Growth (SF-539; Log10 Concentration −8.0): 90%
GI50 (SF-539): 2.18 µM
CC50 (SNB-19): > 100 µM
TGI (SNB-19): >1.00E−4
Percent Growth (SNB-19; Log10 Concentration −4.0): 4%
Percent Growth (SNB-19; Log10 Concentration −5.0): 57%
Percent Growth (SNB-19; Log10 Concentration −6.0): 90%
Percent Growth (SNB-19; Log10 Concentration −7.0): 93%
Percent Growth (SNB-19; Log10 Concentration −8.0): 94%
GI50 (SNB-19): 13.4 µM
CC50 (U251): > 100 µM
TGI (U251): 4.29E−5
Percent Growth (U251; Log10 Concentration −4.0): −21%
Percent Growth (U251; Log10 Concentration −5.0): 35%
Percent Growth (U251; Log10 Concentration −6.0): 89%
Percent Growth (U251; Log10 Concentration −7.0): 93%
Percent Growth (U251; Log10 Concentration −8.0): 96%
GI50 (U251): 5.38 µM
CC50 (SF-295): > 100 µM
TGI (SF-295): 3.23E−5
Percent Growth (SF-295; Log10 Concentration −4.0): −24%
Percent Growth (SF-295; Log10 Concentration −5.0): 25%
Percent Growth (SF-295; Log10 Concentration −6.0): 95%
Percent Growth (SF-295; Log10 Concentration −7.0): 83%
Percent Growth (SF-295; Log10 Concentration −8.0): 90%
GI50 (SF-295): 4.35 µM
CC50 (SF-268): > 100 µM
TGI (SF-268): >1.00E−4
Percent Growth (SF-268; Log10 Concentration −4.0): 1%
Percent Growth (SF-268; Log10 Concentration −5.0): 34%
Percent Growth (SF-268; Log10 Concentration −6.0): 86%
Percent Growth (SF-268; Log10 Concentration −7.0): 92%
Percent Growth (SF-268; Log10 Concentration −8.0): 96%
GI50 (SF-268): 4.98 µM
